Assay results from the kinase profiling compilation of Christmann-Franck et al. (2016).

Columns and labels:
Test in all cases: Caliper, Mobility shift assay off-chip
Details in all cases: compound 1.0 µM
ABL1 (human) = ABL1 (human) (UniProt P00519)
AXL (human) = AXL (human) (UniProt P30530)
CDK3 CCNE1 (human) = CDK3 CCNE1 (human) (UniProt P24864+Q00526)
DAPK3 (human) = DAPK3 (human) (UniProt O43293)
DMPK (human) = DMPK (human) (UniProt Q09013)
[1] = test system: EGFR (human), P00533 [L861Q]
EPHB4 (human) = EPHB4 (human) (UniProt P54760)
FER (human) = FER (human) (UniProt P16591)
Sequence of FER (human) (P16591 whole entry, looked up): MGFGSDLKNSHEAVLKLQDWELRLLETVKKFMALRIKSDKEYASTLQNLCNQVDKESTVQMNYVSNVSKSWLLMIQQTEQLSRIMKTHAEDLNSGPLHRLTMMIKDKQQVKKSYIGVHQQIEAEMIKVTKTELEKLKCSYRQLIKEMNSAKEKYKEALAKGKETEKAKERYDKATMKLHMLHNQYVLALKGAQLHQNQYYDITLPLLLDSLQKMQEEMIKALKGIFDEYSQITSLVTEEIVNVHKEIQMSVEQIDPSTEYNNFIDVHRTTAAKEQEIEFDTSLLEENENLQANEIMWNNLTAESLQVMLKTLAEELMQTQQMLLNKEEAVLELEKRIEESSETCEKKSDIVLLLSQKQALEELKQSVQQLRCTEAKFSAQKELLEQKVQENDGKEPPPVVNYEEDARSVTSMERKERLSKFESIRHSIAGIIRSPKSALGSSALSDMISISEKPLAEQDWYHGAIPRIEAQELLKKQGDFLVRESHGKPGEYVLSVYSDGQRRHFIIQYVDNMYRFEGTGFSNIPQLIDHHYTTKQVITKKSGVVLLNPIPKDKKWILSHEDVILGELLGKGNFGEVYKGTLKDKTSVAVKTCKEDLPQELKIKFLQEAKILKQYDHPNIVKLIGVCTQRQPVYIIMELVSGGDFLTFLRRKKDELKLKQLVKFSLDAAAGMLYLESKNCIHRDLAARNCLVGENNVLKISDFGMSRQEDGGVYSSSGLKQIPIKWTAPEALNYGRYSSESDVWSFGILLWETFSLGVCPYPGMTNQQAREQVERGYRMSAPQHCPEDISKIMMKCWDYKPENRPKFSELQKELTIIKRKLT

FGR (human) = FGR (human) (UniProt P09769)
Sequence of FGR (human) (P09769 whole entry, looked up): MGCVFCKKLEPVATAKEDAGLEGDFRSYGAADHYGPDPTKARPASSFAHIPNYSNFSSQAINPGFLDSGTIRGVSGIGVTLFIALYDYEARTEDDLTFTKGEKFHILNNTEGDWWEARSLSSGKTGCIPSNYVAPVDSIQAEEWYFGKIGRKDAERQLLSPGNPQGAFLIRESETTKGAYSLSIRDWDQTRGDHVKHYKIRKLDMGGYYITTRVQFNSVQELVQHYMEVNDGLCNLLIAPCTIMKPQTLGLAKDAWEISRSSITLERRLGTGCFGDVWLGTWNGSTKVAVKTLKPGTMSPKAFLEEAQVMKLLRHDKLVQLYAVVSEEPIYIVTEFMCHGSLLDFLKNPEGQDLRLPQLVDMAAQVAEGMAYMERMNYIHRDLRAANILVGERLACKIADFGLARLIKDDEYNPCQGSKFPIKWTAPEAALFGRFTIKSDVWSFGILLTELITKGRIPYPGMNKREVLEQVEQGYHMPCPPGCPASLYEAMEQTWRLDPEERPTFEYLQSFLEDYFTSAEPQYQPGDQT

ITK (human) = ITK (human) (UniProt Q08881)
Sequence of ITK (human) (Q08881 whole entry, looked up): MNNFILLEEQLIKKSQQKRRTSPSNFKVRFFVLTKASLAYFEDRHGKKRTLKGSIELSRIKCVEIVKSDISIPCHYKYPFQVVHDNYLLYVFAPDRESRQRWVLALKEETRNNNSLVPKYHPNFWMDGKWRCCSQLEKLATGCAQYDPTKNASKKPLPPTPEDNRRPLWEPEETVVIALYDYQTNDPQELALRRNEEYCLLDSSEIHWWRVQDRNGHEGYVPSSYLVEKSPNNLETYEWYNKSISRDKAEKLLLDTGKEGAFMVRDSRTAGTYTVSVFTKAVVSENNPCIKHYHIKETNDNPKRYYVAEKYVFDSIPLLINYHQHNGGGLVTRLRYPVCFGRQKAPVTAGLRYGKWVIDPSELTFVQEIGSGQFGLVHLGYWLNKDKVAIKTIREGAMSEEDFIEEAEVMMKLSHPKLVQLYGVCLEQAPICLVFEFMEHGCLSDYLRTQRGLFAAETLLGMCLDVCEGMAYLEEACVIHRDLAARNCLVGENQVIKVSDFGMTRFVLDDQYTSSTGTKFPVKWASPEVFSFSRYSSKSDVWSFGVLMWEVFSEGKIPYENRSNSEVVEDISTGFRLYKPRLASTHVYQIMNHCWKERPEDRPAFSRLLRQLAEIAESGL

JAK3 JH1 JH2 (human) = JAK3 JH1 JH2 (human) (UniProt P52333)
MAP3K5 (human) = MAP3K5 (human) (UniProt Q99683)
MAPK9 (human) = MAPK9 (human) (UniProt P45984)
Sequence of MAPK9 (human) (P45984 whole entry, looked up): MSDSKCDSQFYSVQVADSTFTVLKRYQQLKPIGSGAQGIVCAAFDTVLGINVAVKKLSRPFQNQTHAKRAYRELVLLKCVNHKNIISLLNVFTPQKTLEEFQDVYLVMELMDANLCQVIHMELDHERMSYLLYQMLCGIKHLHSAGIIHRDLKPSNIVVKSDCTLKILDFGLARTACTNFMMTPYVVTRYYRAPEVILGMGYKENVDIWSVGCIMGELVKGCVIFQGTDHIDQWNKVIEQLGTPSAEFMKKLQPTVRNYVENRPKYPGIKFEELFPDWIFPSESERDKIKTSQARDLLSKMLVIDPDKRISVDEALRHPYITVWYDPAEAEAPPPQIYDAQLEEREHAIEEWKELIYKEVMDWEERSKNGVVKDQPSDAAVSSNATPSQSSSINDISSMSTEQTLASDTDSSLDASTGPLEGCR

MARK1 (human) = MARK1 (human) (UniProt Q9P0L2)
NUAK1 (human) = NUAK1 (human) (UniProt O60285)
Sequence of NUAK1 (human) (O60285 whole entry, looked up): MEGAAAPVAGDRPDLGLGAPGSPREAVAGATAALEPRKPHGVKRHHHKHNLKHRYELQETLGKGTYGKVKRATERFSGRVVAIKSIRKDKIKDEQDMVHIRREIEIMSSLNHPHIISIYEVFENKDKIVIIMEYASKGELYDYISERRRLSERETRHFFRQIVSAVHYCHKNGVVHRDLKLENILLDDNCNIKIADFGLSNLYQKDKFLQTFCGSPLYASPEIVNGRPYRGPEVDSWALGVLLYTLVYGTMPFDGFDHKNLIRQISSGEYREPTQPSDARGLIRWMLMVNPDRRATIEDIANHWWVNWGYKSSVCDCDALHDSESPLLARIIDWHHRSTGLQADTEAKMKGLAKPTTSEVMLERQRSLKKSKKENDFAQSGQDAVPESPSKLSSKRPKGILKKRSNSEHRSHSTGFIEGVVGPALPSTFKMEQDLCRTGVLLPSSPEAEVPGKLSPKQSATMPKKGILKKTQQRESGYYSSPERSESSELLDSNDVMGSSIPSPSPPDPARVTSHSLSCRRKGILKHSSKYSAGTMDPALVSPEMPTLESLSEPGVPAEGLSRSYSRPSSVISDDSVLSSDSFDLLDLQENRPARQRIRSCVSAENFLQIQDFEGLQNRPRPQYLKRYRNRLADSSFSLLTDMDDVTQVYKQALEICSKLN

PAK6 (human) = PAK6 (human) (UniProt Q9NQU5)
PLK2 (human) = PLK2 (human) (UniProt Q9NYY3)
PRKCE (human) = PRKCE (human) (UniProt Q02156)
PRKCZ (human) = PRKCZ (human) (UniProt Q05513)
PRKD2 (human) = PRKD2 (human) (UniProt Q9BZL6)
PRKG1 (human) = PRKG1 (human) (UniProt Q13976)
PTK6 (human) = PTK6 (human) (UniProt Q13882)
RPS6KA4 KD1 KD2 (human) = RPS6KA4 KD1 KD2 (human) (UniProt O75676)
Sequence of RPS6KA4 KD1 KD2 (human) (O75676 whole entry, looked up): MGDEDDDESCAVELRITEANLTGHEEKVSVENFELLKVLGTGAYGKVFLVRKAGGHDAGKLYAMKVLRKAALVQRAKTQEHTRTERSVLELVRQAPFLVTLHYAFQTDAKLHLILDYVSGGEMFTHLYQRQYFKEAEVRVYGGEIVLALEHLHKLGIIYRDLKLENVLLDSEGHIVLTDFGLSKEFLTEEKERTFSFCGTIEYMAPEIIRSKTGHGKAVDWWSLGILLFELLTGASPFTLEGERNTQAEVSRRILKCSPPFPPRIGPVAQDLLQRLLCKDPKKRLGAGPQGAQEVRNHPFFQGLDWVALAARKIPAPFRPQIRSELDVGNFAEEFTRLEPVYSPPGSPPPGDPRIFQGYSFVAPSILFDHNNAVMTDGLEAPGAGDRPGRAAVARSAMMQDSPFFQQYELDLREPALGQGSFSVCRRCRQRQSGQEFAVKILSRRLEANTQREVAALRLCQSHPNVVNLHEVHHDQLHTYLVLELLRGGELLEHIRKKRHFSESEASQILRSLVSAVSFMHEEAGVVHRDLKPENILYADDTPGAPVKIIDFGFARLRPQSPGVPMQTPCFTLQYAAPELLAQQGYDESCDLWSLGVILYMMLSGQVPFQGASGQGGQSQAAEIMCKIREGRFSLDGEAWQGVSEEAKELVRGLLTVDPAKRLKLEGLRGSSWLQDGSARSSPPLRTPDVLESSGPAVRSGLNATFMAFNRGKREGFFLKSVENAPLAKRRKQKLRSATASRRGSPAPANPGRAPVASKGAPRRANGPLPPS

STK11 (human) = STK11 (human) (UniProt Q15831)
SYK (human) = SYK (human) (UniProt P43405)
TSSK1B (human) = TSSK1B (human) (UniProt Q9BXA7)
CAMK1D (human) = CAMK1D (human) (UniProt Q8IU85)
CLK3 (human) = CLK3 (human) (UniProt P49761)
CSNK1D (human) = CSNK1D (human) (UniProt P48730)
CSNK1G1 (human) = CSNK1G1 (human) (UniProt Q9HCP0)
EEF2K (human) = EEF2K (human) (UniProt O00418)
FLT4 (human) = FLT4 (human) (UniProt P35916)
GRK5 (human) = GRK5 (human) (UniProt P34947)
[2] = test system: KIT (human), P10721 [V560G]
MELK (human) = MELK (human) (UniProt Q14680)
[3] = test system: PDGFRA (human), P16234 [V561D]
PHKG2 (human) = PHKG2 (human) (UniProt P15735)
PTK2 (human) = PTK2 (human) (UniProt Q05397)
RPS6KA6 KD1 KD2 (human) = RPS6KA6 KD1 KD2 (human) (UniProt Q9UK32)
TAOK2 (human) = TAOK2 (human) (UniProt Q9UL54)

Sequence of ABL1 (human) (P00519 whole entry, looked up): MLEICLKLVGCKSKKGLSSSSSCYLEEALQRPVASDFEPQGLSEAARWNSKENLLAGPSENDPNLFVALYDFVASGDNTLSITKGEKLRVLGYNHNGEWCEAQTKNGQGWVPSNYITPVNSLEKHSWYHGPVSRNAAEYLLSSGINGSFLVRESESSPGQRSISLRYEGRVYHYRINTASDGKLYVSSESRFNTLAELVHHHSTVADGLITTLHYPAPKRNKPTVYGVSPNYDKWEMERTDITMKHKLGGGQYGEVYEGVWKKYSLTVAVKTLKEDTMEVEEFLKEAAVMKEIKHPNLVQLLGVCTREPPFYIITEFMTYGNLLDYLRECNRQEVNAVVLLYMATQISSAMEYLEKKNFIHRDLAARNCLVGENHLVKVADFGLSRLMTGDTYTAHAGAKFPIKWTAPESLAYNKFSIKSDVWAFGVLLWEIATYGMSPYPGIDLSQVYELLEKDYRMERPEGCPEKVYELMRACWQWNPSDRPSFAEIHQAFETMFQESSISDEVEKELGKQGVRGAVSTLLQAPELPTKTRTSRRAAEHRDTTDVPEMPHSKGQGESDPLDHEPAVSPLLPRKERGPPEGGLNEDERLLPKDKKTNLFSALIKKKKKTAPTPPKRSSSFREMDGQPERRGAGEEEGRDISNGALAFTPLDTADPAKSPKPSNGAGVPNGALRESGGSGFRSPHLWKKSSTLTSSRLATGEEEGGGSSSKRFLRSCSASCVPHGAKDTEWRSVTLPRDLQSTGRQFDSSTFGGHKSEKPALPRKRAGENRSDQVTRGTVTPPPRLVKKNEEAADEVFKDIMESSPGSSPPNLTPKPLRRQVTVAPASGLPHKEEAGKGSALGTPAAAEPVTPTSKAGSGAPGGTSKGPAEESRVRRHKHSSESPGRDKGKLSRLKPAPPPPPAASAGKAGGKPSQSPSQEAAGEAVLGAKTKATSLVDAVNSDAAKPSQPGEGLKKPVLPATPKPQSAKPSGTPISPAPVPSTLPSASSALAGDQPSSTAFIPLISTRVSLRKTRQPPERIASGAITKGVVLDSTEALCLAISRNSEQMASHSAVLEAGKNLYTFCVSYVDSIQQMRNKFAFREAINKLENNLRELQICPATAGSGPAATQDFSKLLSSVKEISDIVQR

SMILES | residual activity (ABL1 (human)) [%] | residual activity (AXL (human)) [%] | residual activity (CDK3 CCNE1 (human)) [%] | residual activity (DAPK3 (human)) [%] | residual activity (DMPK (human)) [%] | residual activity [1] [%] | residual activity (EPHB4 (human)) [%] | residual activity (FER (human)) [%] | residual activity (FGR (human)) [%] | residual activity (ITK (human)) [%] | residual activity (JAK3 JH1 JH2 (human)) [%] | residual activity (MAP3K5 (human)) [%] | residual activity (MAPK9 (human)) [%] | residual activity (MARK1 (human)) [%] | residual activity (NUAK1 (human)) [%] | residual activity (PAK6 (human)) [%] | residual activity (PLK2 (human)) [%] | residual activity (PRKCE (human)) [%] | residual activity (PRKCZ (human)) [%] | residual activity (PRKD2 (human)) [%] | other results
Cc1n[nH]c2c1c(=O)n(CCCN)c1ccc(Cl)cc21 | 113 | 96 | 96 | 43 | 114 | 99 | 84 | 104 | 71 | 127 | 100 | 117 | 95 | 4 | 4 | 31 | 102 | 90 | 97 | 56 | residual activity (PRKG1 (human)): 95%; residual activity (PTK6 (human)): 93%; residual activity (RPS6KA4 KD1 KD2 (human)): 43%; residual activity (STK11 (human)): 104%; residual activity (SYK (human)): 65%; residual activity (TSSK1B (human)): 24%
O=C(NCCCNc1nc(Nc2cccc(NC(=O)N3CCCC3)c2)ncc1I)c1cccs1 | 82 | 93 | 89 | 102 | 94 | 117 | 110 | 129 | 97 | 85 | 2 | 65 | 84 | 2 | 8 | 145 | 112 | 84 | 107 | 75 | residual activity (CAMK1D (human)): 86%; residual activity (CLK3 (human)): 101%; residual activity (CSNK1D (human)): 94%; residual activity (CSNK1G1 (human)): 112%; residual activity (EEF2K (human)): 106%; residual activity (FLT4 (human)): 13%; residual activity (GRK5 (human)): 109%; residual activity [2]: 15%; residual activity (MELK (human)): 53%; residual activity [3]: 14%; residual activity (PHKG2 (human)): 74%; residual activity (PRKG1 (human)): 107%; residual activity (PTK2 (human)): 80%; residual activity (PTK6 (human)): 97%; residual activity (RPS6KA4 KD1 KD2 (human)): 59%; residual activity (RPS6KA6 KD1 KD2 (human)): 103%; residual activity (STK11 (human)): 108%; residual activity (SYK (human)): 66%; residual activity (TAOK2 (human)): 37%; residual activity (TSSK1B (human)): 99%
